Measurements from patent publication US20230159486A1, “SUBSTITUTED THIOPHENECARBOXAMIDES AND ANALOGUES AS ANTIBACTERIALS AGENTS” (Bayer Aktiengesellschaft, priority 2018, published 2023).
Counter-ions that a name gives are not always drawn. Marks after values point to notes of the source that are not given here.

Experiments:
[1] = test system: Xanthomonas campestris pv. campestris; assay: In vivo preventive test on Xanthomonas campestris pv. campestris (black rot on cabbage); conditions: comparative Example C, same conditions as described in Example B; concentration not given
Protocol: The tested compounds were prepared by homogenization in a mixture of acetone/Dimethyl sulfoxide/Tween®, and then diluted with water to obtain the desired concentration.
The young plants of cabbage were treated by spraying the compound prepared as described above. Control plants were treated only with an aqueous solution of acetone/Dimethyl sulfoxide/Tween®.
After 72 hours, the plants were contaminated by spraying the leaves with an aqueous bacteria suspension of Xanthomonas campestris pv. campestris. The contaminated cabbage plants were incubated for 8 or 10 days at 27° C. at 95% relative humidity.
The test was evaluated 8 or 10 days after the inoculation. 0% means an efficacy which corresponds to that of the control plants while an efficacy of 100% means that no disease was observed.
Compounds CMP1 and CMP2 were tested in an in vivo preventive test on Xanthomonas campestris pv. campestris (black rot on cabbage) in the same conditions as described in Example B.
Compounds CMP1 and CMP2 were prepared in accordance with the teaching of U.S. Pat. No. 5,534,541.

[2] = test system: Xanthomonas campestris pv. campestris; assay: Xanthomonas campestris pv. campestris in vitro cell test (bacteria growth in liquid culture); format: cell-based; conditions: 20 ppm of tested compound, 24 h of incubation
Protocol: Culture medium: LB broth medium (Luria Broth Miller) Sigma
Inoculum: bacteria suspension
Compounds to be tested were solubilized in DMSO and the solution used to prepare the required range of concentrations. The final concentration of DMSO used in the assay was ≤1%.
Inoculum was prepared from a pre-culture of bacteria grown in liquid medium and diluted to the desired optical density (OD).
Compounds were evaluated for their ability to inhibit bacteria growth in liquid culture assay. The compounds were added in the desired concentrations to culture medium containing the bacteria suspension. After 24 h of incubation, the efficacy of compounds was determined by spectrometric measurement of bacteria growth. Inhibition was determined by comparing the absorbance values in wells containing the compounds with the absorbance in control wells without compounds.

[3] = Log P by HPLC on reversed phase columns (EEC directive 79/831 Annex V.A8); format: physicochemical
Protocol: In the above tables, measurement of Log P values was performed according to EEC directive 79/831 Annex V.A8 by HPLC (High Performance Liquid Chromatography) on reversed phase columns with the following methods: • ^[a]
If more than one Log P value is available within the same method, all the values are given and separated by “+”.
Calibration was done with straight-chain alkan2-ones (with 3 to 16 carbon atoms) with known Log P values (measurement of Log P values using retention times with linear interpolation between successive alkanones). Lambda-max-values were determined using UV-spectra from 200 nm to 400 nm and the peak values of the chromatographic signals.

[4] = test system: salicylate responsive promoter sequence of the PR1 (pathogenesis-related protein 1) gene (AT2G14610); assay: Induction of defense gene expression in Arabidopsis thaliana (PR1 promoter-GFP reporter plants); format: in vivo; conditions: 300 ppm, 3rd day after spraying; mock treated leaves set as 1.00
Protocol: Arabidopsis thaliana reporter plants containing the coding sequence of a green fluorescent protein (GFP) linked to the salicylate responsive promoter sequence of the PR1 (pathogenesis-related protein 1) gene (AT2G14610) were grown for five days and then sprayed with compounds. On the 3rd day after spraying, plant fluorescence was assessed with a MacroFluo instrument from Leica Microsystems (Wetzlar, Germany). Fluorescences were quantified with the Meta-Morph Microscopy Automation & Image Analysis Software (Molecular Devices, Sunnyvale, Calif., United States). Background fluorescence in mock treated leaves was set as 1.00.

[5] = reversed phase HPLC columns, method [a]: LC-UV, acidic range, 0.1% formic acid in water and acetonitrile
[6] = reversed phase HPLC columns, value of the preparation example, method not marked

## C=CC1CC1(NC(=O)c1sc(Cl)c(Cl)c1Cl)C(=O)OC (mixture of isomers) [II.36]
[1]
  Efficacy (%): >90%
[2]
  direct activity (inhibition of bacteria growth): no direct activity
[3]
  LogP: 3.68^[a]

## CCOC(=O)C(CC(C)C)NC(=O)c1sc(Cl)c(Cl)c1Cl (racemic) [II.04]
[2]
  direct activity (inhibition of bacteria growth): no direct activity
[3]
  LogP: 5.22^[a]

## COC(=O)C(NC(=O)c1sc(Cl)c(Cl)c1Cl)C1CC1 (racemic) [II.06]
[1]
  Efficacy (%): >90%
[2]
  direct activity (inhibition of bacteria growth): no direct activity
[3]
  LogP: 3.81^[a]

## CCOC(=O)C(Cc1ccc(O)cc1)NC(=O)c1sc(Cl)c(Cl)c1Cl (racemic) [II.15]
[2]
  direct activity (inhibition of bacteria growth): no direct activity
[3]
  LogP: 3.63^[a]

## CCOC(=O)C(Cc1ccccc1)NC(=O)c1sc(Cl)c(Cl)c1Cl (racemic) [II.26]
[3]
  LogP: 5.04^[a]

## CC(C)CC(NC(=O)c1sc(Cl)c(Cl)c1Cl)C(=O)O (racemic) [II.31]
[3]
  LogP: 3.62^[a]

## O=C(NC(Cc1ccccc1)C(=O)O)c1sc(Cl)c(Cl)c1Cl (racemic) [II.32]
[3]
  LogP: 3.56^[a]

## O=C(NC(C(=O)O)C1CC1)c1sc(Cl)c(Cl)c1Cl (racemic) [II.33]
[3]
  LogP: 2.83^[a]

## CCOC(=O)C(Cc1ccccc1)NC(=O)c1scc(Cl)c1Cl (racemic) [XVIa.02]
[3]
  LogP: 3.99^[a]

## COC(=O)C(NC(=O)c1cc(Cl)c(Cl)s1)C1CC1 (racemic) [XVIc.03]
[3]
  LogP: 2.98^[a]

## O=C(NC(C(=O)O)C1CC1)c1cc(Cl)c(Cl)s1 (racemic) [XVIc.05]
[3]
  LogP: 2.33^[a]

## COC(=O)CNC(=O)c1sc(Br)c(Br)c1Br [CMP1, reference compound]
[1]
  Efficacy (%): 27%

## COC(=O)C(NC(=O)c1sc(Cl)c(Cl)c1Cl)C(C)C (centres unmarked) [CMP2, reference compound]
[1]
  Efficacy (%): 0%

## COC(=O)CNC(=O)c1sc(Cl)c(Cl)c1Cl [II.01, methyl N-[(3,4,5-trichloro-2-thienyl)carbonyl]glycinate]
[1]
  Efficacy (%): >90%
[2]
  direct activity (inhibition of bacteria growth): no direct activity
[3]; [5]
  chromatographic logP: 2.83
[3]; [6]
  chromatographic logP: 2.8

## CCOC(=O)C1(NC(=O)c2sc(Cl)c(Cl)c2Cl)CC1 [II.02, ethyl 1-{[(3,4,5-trichloro-2-thienyl)carbonyl]amino}cyclopropanecarboxylate]
[2]
  direct activity (inhibition of bacteria growth): no direct activity
[3]; [5]
  chromatographic logP: 3.41
[3]; [6]
  chromatographic logP: 3.4

## O=C(NC1(C(=O)O)CC1)c1sc(Cl)c(Cl)c1Cl [II.03]
[2]
  direct activity (inhibition of bacteria growth): no direct activity

## O=C(O)CNC(=O)c1sc(Cl)c(Cl)c1Cl [II.05, N-[(3,4,5-trichloro-2-thienyl)carbonyl]glycine]
[3]; [5]
  chromatographic logP: 2.16
[3]; [6]
  chromatographic logP: 2.14

## O=C(CNC(=O)c1sc(Cl)c(Cl)c1Cl)OCC(F)(F)F [II.07]
[2]
  direct activity (inhibition of bacteria growth): no direct activity
[3]
  LogP: 3.60^[a]

## O=C(CNC(=O)c1sc(Cl)c(Cl)c1Cl)Oc1ccccc1 [II.08]
[2]
  direct activity (inhibition of bacteria growth): no direct activity
[3]
  LogP: 3.87^[a]

## CC(C)OC(=O)CNC(=O)c1sc(Cl)c(Cl)c1Cl [II.09]
[2]
  direct activity (inhibition of bacteria growth): no direct activity
[3]
  LogP: 3.67^[a]

## CCCOC(=O)CNC(=O)c1sc(Cl)c(Cl)c1Cl [II.10]
[2]
  direct activity (inhibition of bacteria growth): no direct activity
[3]
  LogP: 3.70^[a]

## CCCCOC(=O)CNC(=O)c1sc(Cl)c(Cl)c1Cl [II.11]
[2]
  direct activity (inhibition of bacteria growth): no direct activity
[3]
  LogP: 4.18^[a]

## O=C(CNC(=O)c1sc(Cl)c(Cl)c1Cl)OC1CC1 [II.12]
[2]
  direct activity (inhibition of bacteria growth): no direct activity
[3]
  LogP: 3.33^[a]

## O=C(CNC(=O)c1sc(Cl)c(Cl)c1Cl)OCc1ccccc1 [II.13]
[2]
  direct activity (inhibition of bacteria growth): no direct activity

## CC[C@H](C)[C@H](NC(=O)c1sc(Cl)c(Cl)c1Cl)C(=O)OC [II.14]
[1]
  Efficacy (%): >90%
[2]
  direct activity (inhibition of bacteria growth): no direct activity
[3]
  LogP: 4.82^[a]

## O=C(CNC(=O)c1sc(Cl)c(Cl)c1Cl)OC1CCC1 [II.16]
[2]
  direct activity (inhibition of bacteria growth): no direct activity
[3]
  LogP: 3.87^[a]

## CC/C=C\CCOC(=O)CNC(=O)c1sc(Cl)c(Cl)c1Cl [II.17]
[2]
  direct activity (inhibition of bacteria growth): no direct activity
[3]
  LogP: 4.69^[a]

## O=C(CNC(=O)c1sc(Cl)c(Cl)c1Cl)OCC1CC1 [II.18]
[2]
  direct activity (inhibition of bacteria growth): no direct activity
[3]
  LogP: 3.81^[a]

## CC(C)COC(=O)CNC(=O)c1sc(Cl)c(Cl)c1Cl [II.19]
[2]
  direct activity (inhibition of bacteria growth): no direct activity
[3]
  LogP: 4.13^[a]

## C#CCOC(=O)CNC(=O)c1sc(Cl)c(Cl)c1Cl [II.20]
[2]
  direct activity (inhibition of bacteria growth): no direct activity
[3]
  LogP: 3.13^[a]

## N#CCOC(=O)CNC(=O)c1sc(Cl)c(Cl)c1Cl [II.21]
[2]
  direct activity (inhibition of bacteria growth): no direct activity
[3]
  LogP: 2.84^[a]

## C=CCOC(=O)CNC(=O)c1sc(Cl)c(Cl)c1Cl [II.22]
[2]
  direct activity (inhibition of bacteria growth): no direct activity
[3]
  LogP: 3.64^[a]

## C[Si](C)(C)COC(=O)CNC(=O)c1sc(Cl)c(Cl)c1Cl [II.23]
[2]
  direct activity (inhibition of bacteria growth): no direct activity
[3]
  LogP: 4.81^[a]

## CC(C)(C)OC(=O)CNC(=O)c1sc(Cl)c(Cl)c1Cl [II.24]
[2]
  direct activity (inhibition of bacteria growth): no direct activity
[3]
  LogP: 4.27^[b]

## CCOC(=O)[C@H](Cc1ccccc1)NC(=O)c1sc(Cl)c(Cl)c1Cl [II.25]
[3]
  LogP: 5.00^[a]

## CCOC(=O)[C@@H](CC(C)C)NC(=O)c1sc(Cl)c(Cl)c1Cl [II.27]
[3]
  LogP: 5.20^[a]

## CCOC(=O)[C@H](CC(C)C)NC(=O)c1sc(Cl)c(Cl)c1Cl [II.28]
[3]
  LogP: 5.16^[a]

## CC[C@H](C)[C@H](NC(=O)c1sc(Cl)c(Cl)c1Cl)C(=O)O [II.30]
[3]
  LogP: 3.69^[a]

## CCOC(=O)CN(C)C(=O)c1sc(Cl)c(Cl)c1Cl [II.35]
[2]
  direct activity (inhibition of bacteria growth): no direct activity
[3]
  LogP: 3.21^[a]

## CCOC(=O)[C@@H](Cc1ccccc1)NC(=O)c1sc(Cl)c(Cl)c1Cl [II.37]
[3]
  LogP: 5.00^[a]

## O=C(O)c1ccccc1O [Salicylic acid]
[4]
  relative fluorescence value: 2.70

## Nc1c(C(=O)O)sc(Cl)c1Cl [XIXc.01, 3-amino-4,5-dichlorothiophene-2-carboxylic acid hydrochloride (1:1)]
[3]; method [a]: LC-UV, acidic range, 0.1% formic acid in water and acetonitrile
  chromatographic logP: 2.05

## CCOC(=O)C1(NC(=O)c2sc(Cl)c(Cl)c2N)CC1 [XVIIc.01, ethyl 1-{[(3-amino-4,5-dichloro-2-thienyl)carbonyl]amino}cyclopropanecarboxylate]
[3]; [5]
  chromatographic logP: 2.77
[3]; [6]
  chromatographic logP: 2.77

## CCOC(=O)CNC(=O)c1scc(Cl)c1Cl [XVIa.01]
[3]
  LogP: 2.40^[a]

## CCOC(=O)C1(NC(=O)c2scc(Cl)c2Cl)CC1 [XVIa.03]
[3]
  LogP: 2.59^[a]

## COC(=O)C1(NC(=O)c2cc(Cl)c(Cl)s2)CC1 [XVIc.01]
[3]
  LogP: 2.49^[a]
